Patent US20160222412A1, “R[…] WITH S[…]-LOOP” (Tocagen Inc., priority 2013, published 2016)

B1: 6A-466: RRV with yCD2 and minimum IRES, 6As, base 183 to 544 of SEQ ID NO:41 (nucleic acid, listed as Encephalomyocarditis virus)
DNA: AGGAAGCAGTTCCTCTGGAAGCTTCTTGAAGACAAACAACGTCTGTAGCGACCCTTTGCAGGCAGCGGAACCCCCCACCTGGCGACAGGTGCCTCTGCGGCCAAAAGCCACGTGTATAAGATACACCTGCAAAGGCGGCACAACCCCAGTGCCACGTTGTGAGTTGGATAGTTGTGGAAAGAGTCAAATGGCTCTCCTCAAGCGTATTCAACAAGGGGCTGAAGGATGCCCAGAAGGTACCCCATTGTATGGGATCTGATCTGGGGCCTCGGTGCACATGCTTTACATGTGTTTAGTCGAGGTTAAAAANCGTCTAGGCCCCCCGAACCACGGGGACGTGGTTTTCCTTTGAAAAACACGAT
modifications: (492)..(492) “n” can be present or absent, if present n is “A”

Assays:
[1] = Intravenous Toca 511 in Balb/c mice, long-term vector biolocalization study; type: in vivo
Description: Intravenous injection of Toca 511 into Balb/C mice. 2.35×10̂6 or 2.35×10̂5 TU of Toca 511 was intravenously administered to 8-week-old female Balb/C mice. Approximately 180 days post infection, genomic DNA from various tissues was harvested for bio-locolization study. Genomic DNA from abnormal tissues such as thymus or lymph node was extracted for sequence analysis of the envelope and IRES-yCD2 cassette.
RRV can undergo changes in the length of the oligo adenosine in the A bulge of the EMCV IRES in vivo. […] In a vector biolocalization study conducted as part of a preclinical package to support initiation of clinical trials, Toca 511 was injected intravenously into a permissive mouse strain (Balb/c mice) to evaluate long-term vector bio-localization. […] DNA from the abnormal thymus or lymph nodes of 3 mice were harvested for molecular PCR cloning of proviral sequences, followed by sequencing analysis. One feature was that there were multiple copies of the virus including recombinants with endogenous mouse MCF envelope sequences present, as occurs with lymphomagenesis with ecotropic MLV infection (Fan, 1997). Further analyses are planned for a future publication. […] It appears that the oligo A number drifts preferentially towards longer oligo A in the A bulge. However, the nature of this preference was undefined in the in vivo study.

U87-MG cells = experiment: yCD2 protein expression by immunoblot in infected U87-MG cells; type: cell-based, human; settings: fully infected U87-MG cells
Protocol: RRVs containing various numbers of A's in the J-K bifurcation region express similar levels of transcripts but different levels of protein expression. The viral supernatant from HT1080 cells was then used to infect naive U87-MG cells at multiplicity of infection (MOI) of 0.1. At day 10 post infection, when the cells were fully infected, cellular viral RNA levels were measured by quantitative real-time polymerase chain reaction (qRT-PCR), and protein expression level of yCD2 was examined by immunoblotting (Perez et al., 2012). The cellular viral RNA expression levels were measured using two different primer sets, located in the env (5′Env2: 5′-[…]-3′ (SEQ ID NO:47), 3′Env2: 5′-[…]-3′ (SEQ ID NO:48), probe: 5′FAM-[…]-3′BHQ (SEQ ID NO:49)) and in yCD2 region (5′yCD2: 5′-[…]-3′ (SEQ ID NO:50), 3′yCD2: 5′-[…]-3′ (SEQ ID NO:51), probe: 5′FAM-[…]-3′BHQ (SEQ ID NO:52)), respectively, (FIG. 2). The relative level of RNA from each vector was calculated using 2-^ΔΔ(Ct) method with respect to the vector containing the 6As. […] Therefore, the effect of the number of A's in the loop were analyzed with another transgene for which the protein expression assay was well defined. […]
Immunoblot and cell-based yCD2 enzymatic assay. […] Quantity One software (Bio-Rad) was used to quantify the signal of yCD2 and GAPDH detected on the immunoblots. […]

Molecule	mice with abnormalities in lymphoid tissues ([1]; higher doses, 180 days, depending on the cohort)	change of oligo A length in A bulge of integrated proviruses in vivo ([1]; intravenous, approximately 180 days, abnormal thymus or lymph node)	yCD2 protein expression in comparison to the 6A variant with full-length IRES (U87-MG cells)
Toca 511: RRV with a 7A IRES expressing yCD2 (pAC3-yCD2; SEQ ID NO:22)	10-20%	heterogeneous expansions of 7A to 8A, 9A, 10A, 11A and 12A and a contraction of 7A to 6A	
B1			shows expression of yCD2
